Reference: the NIST ThermoML archive (doi:10.1016/j.jct.2014.04.017)

Conditions: 101.33 kPa, Liquid, Buoyancy - hydrostatic balance

CCCCCC[n+]1ccn(C)c1.O=S(=O)([N-]S(=O)(=O)C(F)(F)F)C(F)(F)F
Conditions	mass density [kg/m3]
262.98 K	1405.31
268.26 K	1400.21
272.74 K	1395.9
278.03 K	1390.98
283.18 K	1385.8
288.12 K	1381.67
292.84 K	1377.27
298.15 K	1372.76
303.13 K	1368.35
308.26 K	1362.94
313.34 K	1358.8
318.28 K	1354.33
323.34 K	1349.1
328.18 K	1345.78
332.77 K	1341.44
338.51 K	1336.76
343.65 K	1332.79
348.22 K	1328.79
352.66 K	1324.84
358.06 K	1320.79
364.78 K	1314.72

CCCC[n+]1ccn(C)c1.O=S(=O)([N-]S(=O)(=O)C(F)(F)F)C(F)(F)F
Conditions	mass density [kg/m3]
274.86 K	1458.44
277.17 K	1456.4
281.91 K	1452.1
287.89 K	1446.21
293.45 K	1441.4
298.34 K	1436.71
303.07 K	1432.1
308.18 K	1426.64
313.04 K	1422.13
318.02 K	1417.45
323.1 K	1412.39
328.17 K	1407.64
333.42 K	1403.16
338.42 K	1398.52
343.02 K	1394.25
348.36 K	1389.71
352.89 K	1385.06
358.03 K	1380.66
364.37 K	1374.57

CCCn1cc[n+](C)c1.F[P-](F)(F)(F)(F)F [1-methyl-3-propylimidazolium hexafluorophosphate]
Conditions	mass density [kg/m3]
303.08 K	1410.96
313.18 K	1402.37
318.04 K	1398.33
323.07 K	1393.53
328.22 K	1389.63
333.39 K	1385.32
338.41 K	1381.11
343.27 K	1377.03
348.16 K	1372.97
352.56 K	1369.14
358.11 K	1364.85
364.89 K	1359.36

CCCC[n+]1cccc(C)c1.F[P-](F)(F)(F)(F)F [1-butyl-3-methylpyridinium hexafluorophosphate]
Conditions	mass density [kg/m3]
322.98 K	1321.09
327.57 K	1317.44
333.44 K	1312.89
338.78 K	1308.72
343.67 K	1304.93
348.19 K	1301.53
353.1 K	1297.87
358.08 K	1294.06
364.61 K	1289.01

C[n+]1cc[nH]c1.O=S(=O)([N-]S(=O)(=O)C(F)(F)F)C(F)(F)F [1-methylimidazolium bis(trifluoromethylsulfonyl)imide]
Conditions	mass density [kg/m3]
323.28 K	1614.04
325.58 K	1610.84
328.01 K	1607.46
330.51 K	1605.18
333.62 K	1601.54
335.65 K	1599.35
338.58 K	1596.52
340.97 K	1593.47
343.62 K	1590.71

CCn1cc[n+](C)c1.O=S(=O)([N-]S(=O)(=O)C(F)(F)F)C(F)(F)F
Conditions	mass density [kg/m3]
261.46 K	1556.58
268.29 K	1548.72
273.3 K	1544.02
278.37 K	1539.04
282.48 K	1535.02
287.45 K	1529.96
293.11 K	1524.41
298.13 K	1519.52
302.98 K	1514.33
308.32 K	1508.35
313.89 K	1503.28
318.09 K	1498.65
323.34 K	1493.84
328.03 K	1488.18
333.55 K	1483.58
337.88 K	1479.01
342.95 K	1473.82
348.1 K	1469.36
352.98 K	1464.95
357.53 K	1460.04
363.55 K	1453.65

CCCCn1cc[n+](C)c1C.F[P-](F)(F)(F)(F)F [1-butyl-2,3-dimethylimidazolium hexafluorophosphate]
Conditions	mass density [kg/m3]
308.17 K	1342.4
313.09 K	1338.43
318.12 K	1334.34
323.15 K	1330.39
328.24 K	1326.32
333.37 K	1322.54
338.85 K	1318.34
343.33 K	1314.8
347.97 K	1310.87
352.71 K	1307.2
357.94 K	1302.89
364.63 K	1298.26
